Literature values as cited in publication PMC6738096 (British Journal of Cancer, 2019).

Experiments:
ALK-positive NSCLC = test system: ALK-positive NSCLC; parameters: method as in not given; settings: ALK pre-treated setting, post crizotinib; ref not given; cited from earlier work
[1] = cited from earlier work

Structure (SMILES) | Objective response rate (ALK-positive NSCLC) | Patients with QTc > 500 ms ([1]; among 919 patients) | Patients with ΔQTc of > 60 ms ([1]; among 919 patients) | QTc prolongation in clinical trials [1]
Cc1cc(Nc2ncc(Cl)c(Nc3ccccc3S(=O)(=O)C(C)C)n2)c(OC(C)C)cc1C1CCNCC1 [ceritinib] | 55% | 1.3% | 6% | 
C[C@H]1Oc2cc(cnc2N)-c2c(nn(C)c2C#N)CN(C)C(=O)c2ccc(F)cc21 [lorlatinib] | 48% |  |  | 
COc1cc(N2CCC(N3CCN(C)CC3)CC2)ccc1Nc1ncc(Cl)c(Nc2ccccc2P(C)(C)=O)n1 [brigatinib] | 45–54% |  |  | QTc was not prolonged to any clinically relevant extent
